Results: patent US5763443A, “MDR resistance treatment and novel pharmaceutically active riminophenazines” (priority 1994, dated 1998)
Values after ≈ are worked out from the molar mass of the structure shown. Where two headings read alike, the source gives them in different places.

Legend:
[1] = system: human small cell lung cancer cell line H69/P; test: MTT assay, 7 day exposure, sensitivity of parent cell line H69/P to chemotherapeutic agents; type: cell-based
Experimental: (§1) The riminophenazines of the above formula (I), contain an imino group. […] The potency of compounds of the above general formula, as inhibitors of multi-drug resistance, was assessed by sensitization of a P-glycoprotein positive cell line to drugs associated with this form of resistance. A human small cell lung cancer cell line H 69/P as well as a multi-drug resistance (MDR) sub-line H69/LX4 were used. These cell lines were obtained from the Medical Research Council Clinical Oncology and Radiotherapeutics Unit, Hills Road, Cambridge, England. The H69/LX4 line was selected in vitro by progressive exposure to increasing concentrations of doxorubicin in order to increase P-glycoprotein expression.
(§2) The cell lines used were human small cell lung cancer cell line HP69/P and a multi-drug resistant (MDR) sub-line H69/LX4, both of which were supplied by the MRC Clinical Oncology and Radiotherapeutics Unit, Hills Road, Cambridge, England. The maintenance of the cell lines and drug response assays was done as described by Twentyman et al in British Journal of Cancer Volume 65 pages 335-340. The H69/LX4 line was originally described by Twentyman et al in British Journal of Cancer Volume 53, pages 529-637 (1986).
(§3) The data in parenthesis represents fold sensitivity compared with the chemotherapeutic agent without the MDR inhibitor.

[2] = system: multi-drug resistant (MDR) lung carcinoma cell line H69/LX4; test: in vitro; conditions: for INCREASED SENSITIVITY H69/Lx4: Table VIII, values equal IC50 NONE / IC50 with VB 25 ng/ml of Table VII, 10080 min; for MDR reversal properties: with doxorubicin 12,5 ng/ml or vinblastine 25 ng/ml, FIGS. 4 to 7
Experimental: as §1, §2, §3
The results obtained, are illustrated graphically in FIGS. 4 to 7 of the accompanying drawings.
(§4) The general procedure set forth above was followed, i.e. 7 days incubation in the4 presence of doxorubicin at 12,5 ng/ml or vinblastine at 25 or 3 ng/ml.
(§5) The effects were examined over a seven (7) day exposure to different concentrations of B4119 and B4125 on the sensitivity of a doxorubicin resistant leukaemia cell line (K562/MMB) and a lung carcinoma cell line (H69/LX4) to doxorubicin (dox) and vinblastine (VB) using the MTT assay.

[3] = system: MDR leukaemia cell line K562/MMB; test: cells; conditions: for MDR activity / sensitivity against cell line K562/MMP: compared with known reference compound B4100
Experimental: A third cell line (562/MMB) used was a MDR leukemia cell line selected in vitro by progressive exposure to increasing concentrations of vinblastine in order to increase P-glycoprotein expression. This cell line was developed in the Department of Immunology, University of Pretoria from K562 (ATCC CCL 243) supplied by Highveld Biological (Pty) Ltd, Sandton.
as §4, §5

H69/LX4 cells = test: [14C]-vinblastine accumulation in MDR cell line; type: cell-based, human; conditions: 1 hour pretreatment, 30 minutes [14C]-vinblastine
Experimental: The effect of riminophenazines on the accumulation of [^14 C]-vinblastine was investigated. For these experiments, both of the above cell lines (H69/LX4 and H69/P) were prepared as described by Coley et al (Biochem. Pharmacal 38, 4467-4475 (1989)). After a 1 hour pretreatment with the MDR reversal agents, cells (1×10^6 /ml) were exposed to […] [^14 C]-vinblastine (1 μCi specific activity) for 30 minutes.

[4] = bio-availability (no method given)
[5] = system: gram positive microorganisms (Mycobacterium, Enterococcus, Streptococcus, methicillin resistant Staphylococcus); test: anti-bacterial activity
[6] = H69/P, CsA 5 μg/ml, clofazimine 1 μg/ml or B669 0.5 μg/ml
[7] = H69/LX4, CsA 5 μg/ml, clofazimine 1 μg/ml or B669 0.5 μg/ml
[8] = Homo sapiens, 168 h, read-out: IC 50 H69/Lx4 NONE
[9] = Homo sapiens, read-out: IC 50 H69/Lx4 DOX 12 ng/ml
[10] = Homo sapiens, read-out: IC 50 H69/Lx4 VB 25 ng/ml
[11] = Homo sapiens, K562, read-out: IC 50 K562/MMB VB 3 ng/ml, Table VII, with vinblastine 3 ng/ml
[12] = Table VIII, values equal IC50 NONE / IC50 with VB 3 ng/ml of Table VII, 10080 min
[13] = Homo sapiens, read-out: IC50 H69/LX4 +VB (25 ng/ml)
[14] = Homo sapiens, read-out: IC50 H69/LX4 +dox (12 ng/ml)
[15] = Homo sapiens, read-out: IC50 H69/LX4 none
[16] = Homo sapiens, K562, 168 h, read-out: IC 50 K562/MMB NONE
[17] = Homo sapiens, K562, read-out: IC50 K562/MMB +VB (3 ng/ml), Table VI, with vinblastine 3 ng/ml
[18] = Homo sapiens, K562, read-out: IC50 K562/MMB +dox (12 ng/ml), Table VI, with doxorubicin 12 ng/ml
[19] = Homo sapiens, K562, read-out: IC 50 K562/MMB DOX 12 ng/ml, Table VII, with doxorubicin 12 ng/ml
[20] = Homo sapiens, K562, read-out: IC50 K562/MMB none
[21] = Homo sapiens, 168 h, read-out: cytotoxic activity of chemotherapeutic agent at the concentration used with the riminophenazine
[22] = Homo sapiens, K562, 168 h, read-out: cytotoxic activity of chemotherapeutic agent at the concentration used with the riminophenazine

SMILES	IC50 [2, 8] [µg/mL]	IC50 [2, 9] [µg/mL]	IC50 [2, 10] [µg/mL]	INCREASED SENSITIVITY H69/Lx4 [2]	IC50 [3, 11] [µg/mL]	MDR activity / sensitivity against cell line K562/MMP [3]	INCREASED SENSITIVITY K 562/MMB [3, 12]	IC50 [3, 19] [µg/mL]	anti-bacterial activity [5]	further results
CC(C)N=c1cc2n(-c3ccc(Cl)cc3)c3ccccc3nc-2cc1Nc1ccc(Cl)cc1 [Compound B663, N,5-bis-(4-chlorophenyl)-3,5-dihydro-3-[(1-methylethyl)imino]-2-phenazinamine, reference compound]	2.5 (≈ 5.28 µM)	1.31 (≈ 2.78 µM)	0.372 (≈ 0.786 µM)	6.72	0.038 (≈ 0.0803 µM)	good activity				fold sensitivity to Etoposide compared with agent without MDR inhibitor ([1]; 168 h, 1 ug/mL): 0.6 fold; fold sensitivity to Cyclophosphamide compared with agent without MDR inhibitor [1, 6]: 0.9 fold; fold sensitivity to Daunorubicin compared with agent without MDR inhibitor [1, 6]: 1.0 fold; fold sensitivity to Doxorubicin compared with agent without MDR inhibitor [1, 6]: 0.8 fold; fold sensitivity to Methotrexate compared with agent without MDR inhibitor [1, 6]: 0.9 fold; fold sensitivity to Mitomycin C compared with agent without MDR inhibitor [1, 6]: 0.7 fold; fold sensitivity to Vinblastine compared with agent without MDR inhibitor [1, 6]: 1.3 fold; fold sensitivity to Etoposide compared with agent without MDR inhibitor ([2]; 168 h, 1 ug/mL): 5.0 fold; fold sensitivity to Cyclophosphamide compared with agent without MDR inhibitor [2, 7]: 1.0 fold; fold sensitivity to Daunorubicin compared with agent without MDR inhibitor [2, 7]: 4 fold; fold sensitivity to Doxorubicin compared with agent without MDR inhibitor [2, 7]: 11 fold; fold sensitivity to Methotrexate compared with agent without MDR inhibitor [2, 7]: 0.7 fold; fold sensitivity to Mitomycin C compared with agent without MDR inhibitor [2, 7]: 1.7 fold; fold sensitivity to Vinblastine compared with agent without MDR inhibitor [2, 7]: ~13 fold; fold sensitivity to Vinblastine compared with agent without MDR inhibitor ([2]; H69/LX4, CsA 5 μg/ml, clofazimine 1 μg/ml or B669 0.5 μg/ml, listed as Clofazimine (B663)): 13.7 fold; INCREASED S[…] 562/MMB [3, 12]: 5.92; vinblastine accumulation in the MDR cell line (H69/LX4 cells): significant enhancement
CC1(C)CC(N=c2cc3n(-c4ccc(C(F)(F)F)cc4)c4ccccc4nc-3cc2Nc2ccc(C(F)(F)F)cc2)CC(C)(C)N1 [Compound B4103, N,5-bis(4-trifluoromethylphenyl)-3,5-dihydro-3[(2',2',6',6'-tetramethyl-4-piperidyl)imino]-2-phenazinamine]	0.755 (≈ 1.18 µM)	0.552 (≈ 0.866 µM)	0.145 (≈ 0.227 µM)	5.21			0.69			MDR reversal properties ([2]; H69/LX4): Very good MDR reversal properties; bio-availability [4]: good bio-availability
CC1(C)CC(N=c2cc3n(-c4ccc(F)c(Cl)c4)c4ccccc4nc-3cc2Nc2ccc(F)c(Cl)c2)CC(C)(C)N1 [Compound B4119, N,5-bis(3-chloro-4-fluorophenyl)-3,5-dihydro-3-[(2',2',6',6'-tetramethyl-4-piperidyl)-imino]-2-phenazinamine]	0.62 (≈ 1.02 µM)	0.6 (≈ 0.989 µM)	0.109 (≈ 0.18 µM)	5.69	0.189 (≈ 0.312 µM)		1.46	0.147 (≈ 0.242 µM)	Particularly active	IC50 [2, 13]: 0.109 µg/mL (≈ 0.18 µM); IC50 [2, 14]: 0.6 µg/mL (≈ 0.989 µM); IC50 [2, 15]: 0.62 µg/mL (≈ 1.02 µM); IC50 [3, 16]: 0.276 µg/mL (≈ 0.455 µM); IC50 [3, 17]: 0.189 µg/mL (≈ 0.312 µM); IC50 [3, 18]: 0.147 µg/mL (≈ 0.242 µM); IC50 [3, 20]: 0.276 µg/mL (≈ 0.455 µM)
CC1(C)CC(N=c2cc3n(-c4cc(Cl)cc(Cl)c4)c4ccccc4nc-3cc2Nc2cc(Cl)cc(Cl)c2)CC(C)(C)N1 [Compound B4121, N,5-bis(3,5-dichiorophenyl)-3,5-dihydro-3-[(2',2',6',6'-tetramethyl-4-pipendyl)-imino]-2-phenazinamine]	1.23 (≈ 1.92 µM)	0.524 (≈ 0.819 µM)	0.162 (≈ 0.253 µM)	7.57	0.023 (≈ 0.036 µM)	increased substantially and unexpectedly	97.83		Particularly active	
CC1(C)CC(N=c2cc3n(-c4ccccc4Cl)c4ccccc4nc-3cc2Nc2ccccc2Cl)CC(C)(C)N1 [Compound B4125, N,5-bis(2-chlorophenyl)-3,5-dihydro-3-[(2',2',6',6'-tetramethyl-4-piperidyl)-imino]-2-phenazinamine]	0.785 (≈ 1.38 µM)	0.521 (≈ 0.913 µM)	0.399 (≈ 0.699 µM)	1.97	0.026 (≈ 0.0456 µM)	exceptionally good activity	11.96	0.188 (≈ 0.329 µM)	Particularly active	IC50 [2, 13]: 0.399 µg/mL (≈ 0.699 µM); IC50 [2, 14]: 0.521 µg/mL (≈ 0.913 µM); IC50 [2, 15]: 0.785 µg/mL (≈ 1.38 µM); IC50 [3, 16]: 0.311 µg/mL (≈ 0.545 µM); IC50 [3, 17]: 0.026 µg/mL (≈ 0.0456 µM); IC50 [3, 18]: 0.188 µg/mL (≈ 0.329 µM); IC50 [3, 20]: 0.311 µg/mL (≈ 0.545 µM)
CC1(C)CC(N=c2cc3n(-c4cccc(C(F)(F)F)c4)c4ccccc4nc-3cc2Nc2cccc(C(F)(F)F)c2)CC(C)(C)N1 [Compound B4126, N,5-bis(3-trifluoromethyl-phenyl)-3,5-dihydro-3-[(2',2',6',6'-tetramethyl-4-piperidyl)-imino]-2-phenazinamine]	0.699 (≈ 1.1 µM)	0.455 (≈ 0.714 µM)	0.26 (≈ 0.408 µM)	2.69			4.45		Particularly active	
CC(C)c1ccc(Nc2cc3nc4ccccc4n(-c4ccc(C(C)C)cc4)c-3cc2=NC2CC(C)(C)NC(C)(C)C2)cc1 [Compound B4158, N,5-bis(4-isopropylphenyl)-3,5-dihydro-3-[(2',2',6',6'-tetramethyl-4-piperidyl)-imino]-2-phenazinamine]	0.408 (≈ 0.696 µM)	0.343 (≈ 0.585 µM)	0.124 (≈ 0.212 µM)	3.29			4.69			MDR activity against the cell line H69/LX4 [2]: Reasonably good activity; MDR reversal properties ([2]; H69/LX4): Very good MDR reversal properties; bio-availability [4]: good bio-availability
CC1(C)CC(N=c2cc3n(-c4ccc(C(F)(F)F)cc4C(F)(F)F)c4ccccc4nc-3cc2Nc2ccc(C(F)(F)F)cc2C(F)(F)F)CC(C)(C)N1 [Compound B4178, N,5-bis(2,4-di-trifluoromethyl-phenyl)-3,5-dihydro-3-[(2',2',6',6'-tetramethylpiperidyl)-imino]phenazinamine]	0.785 (≈ 1.01 µM)	0.521 (≈ 0.673 µM)	0.399 (≈ 0.516 µM)	1.97	0.199 (≈ 0.257 µM)		6.03	0.919 (≈ 1.19 µM)		IC50 ([3]; Homo sapiens, K562, 168 h, read-out: IC 50 K562/MMB NONE, Table VII, riminophenazine alone, 7 day): 1.02 µg/mL (≈ 1.32 µM)
COc1cccc2c1C(=O)c1c(O)c3c(c(O)c1C2=O)C[C@@](O)(C(=O)CO)C[C@@H]3O[C@H]1C[C@H](N)[C@H](O)[C@H](C)O1 [Doxorubicin, reference compound]										cytotoxicity at 0.0125 µg/mL [2, 21]: < 10%; cytotoxicity at 0.0125 µg/mL [3, 22]: < 10%
CC[C@]1(O)C[C@@H]2CN(CCc3c([nH]c4ccccc34)[C@@](C(=O)OC)(c3cc4c(cc3OC)N(C)[C@H]3[C@@](O)(C(=O)OC)[C@H](OC(C)=O)[C@]5(CC)C=CCN6CC[C@]43[C@@H]65)C2)C1 [Vinblastine, reference compound]										cytotoxicity at 0.025 µg/mL [2, 21]: < 10%; cytotoxicity at 0.003 µg/mL [3, 22]: < 10%
